What was measured:
[1] = target: JAK2 (recombinant purified GST-tagged catalytic domain) (Homo sapiens (Human), UniProt O60674); assay: Jak Biochemical HTRF Assay (JAK2); details: [ATP] 8.5 μM
[2] = target: JAK1 (recombinant purified GST-tagged catalytic domain) (Homo sapiens (Human), UniProt P23458); assay: Jak Biochemical HTRF Assay (JAK1); details: [ATP] 31.8 μM
Method in brief: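 HTRF format, biotinylated peptide substrate; ATP-initiated reaction 120 min RT; EDTA quench + streptavidin-Dylight 650/Eu-anti-pY20 detection, 60 min RT; signal = 665/615 ratio ×10,000; normalized % inhibition, 4-parameter fit → IC50.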

JAK1 (recombinant purified GST-tagged catalytic domain), sequence (P23458 875-1153): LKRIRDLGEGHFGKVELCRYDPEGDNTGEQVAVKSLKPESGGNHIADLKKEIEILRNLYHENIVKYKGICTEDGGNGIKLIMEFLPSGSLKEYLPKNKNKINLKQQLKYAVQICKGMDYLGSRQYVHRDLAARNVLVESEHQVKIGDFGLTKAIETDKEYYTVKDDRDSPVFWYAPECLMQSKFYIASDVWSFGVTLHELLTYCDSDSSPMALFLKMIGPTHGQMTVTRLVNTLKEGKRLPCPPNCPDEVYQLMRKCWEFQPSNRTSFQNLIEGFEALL
JAK2 (recombinant purified GST-tagged catalytic domain), sequence (O60674 849-1124): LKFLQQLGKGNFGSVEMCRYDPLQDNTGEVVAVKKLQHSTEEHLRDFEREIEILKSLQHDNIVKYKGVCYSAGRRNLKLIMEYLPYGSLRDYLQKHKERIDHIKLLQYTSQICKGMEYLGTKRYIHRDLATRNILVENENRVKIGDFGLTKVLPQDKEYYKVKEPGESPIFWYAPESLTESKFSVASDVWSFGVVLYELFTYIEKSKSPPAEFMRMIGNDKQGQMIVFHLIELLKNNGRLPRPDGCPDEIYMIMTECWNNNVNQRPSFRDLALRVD

| Compound | IC50 [1] [nM] | IC50 [2] [nM] |
| --- | --- | --- |
| N#CC[C@@]1(n2nc(Nc3ccc4c(c3)CN(C3CCN(CC(F)(F)F)CC3)S4(=O)=O)c3c(=O)[nH]ccc32)CCOC[C@@H]1F (single isomer, unassigned) [Example 5-277, 2-((3R,4R or 3S,4S)-4-(3-((1,1-dioxido-2-(1-(2,2,2-trifluoroethyl)piperidin-4-yl)-2,3-dihydrobenzo[d]isothiazol-5-yl)amino)-4-oxo-4,5-dihydro-1H-pyrazolo[4,3-c]pyridin-1-yl)-3-fluorotetrahydro-2H-pyran-4-yl)acetonitrile] | 0.05 | 0.05 |
| N#CC[C@]1(n2nc(Nc3ccc4c(c3)CN(C3CCN(CC(F)(F)F)CC3)S4(=O)=O)c3c(=O)[nH]ccc32)CCOC[C@H]1F (single isomer, unassigned) [Example 5-278, 2-((3S,4S or 3R,4R)-4-(3-((1,1-dioxido-2-(1-(2,2,2-trifluoroethyl)piperidin-4-yl)-2,3-dihydrobenzo[d]isothiazol-5-yl)amino)-4-oxo-4,5-dihydro-1H-pyrazolo[4,3-c]pyridin-1-yl)-3-fluorotetrahydro-2H-pyran-4-yl)acetonitrile] | 2.65 | 0.2 |
| CC(C)(C)OC(=O)N1CCC(CC#N)(n2nc(Nc3ccc(C4(C(F)(F)F)CCN(Cc5ccccc5)C4)cc3)c3c(=O)[nH]ccc32)CC1 (single isomer, unassigned) [Example 5-280, (S or R) tert-butyl 4-(3-((4-(1-benzyl-3-(trifluoromethyl)pyrrolidin-3-yl)phenyl)amino)-4-oxo-4,5-dihydro-1H-pyrazolo[4,3-c]pyridin-1-yl)-4-(cyanomethyl)piperidine-1-carboxylate] | 9.56 | 7.33 |
| CC(C)(C)OC(=O)N1CCC(CC#N)(n2nc(Nc3ccc(C4(C(F)(F)F)CCN(Cc5ccccc5)C4)cc3)c3c(=O)[nH]ccc32)CC1 (single isomer, unassigned) [Example 5-281, (S or R) tert-butyl 4-(3-((4-(1-benzyl-3-(trifluoromethyl)pyrrolidin-3-yl)phenyl)amino)-4-oxo-4,5-dihydro-1H-pyrazolo[4,3-c]pyridin-1-yl)-4-(cyanomethyl)piperidine-1-carboxylate] | 10 | 7.9 |
| CC(C)(C)OC(=O)N1CCC(CC#N)(n2nc(Nc3ccc(C4(C(F)(F)F)CCNC4)cc3)c3c(=O)[nH]ccc32)CC1 (single isomer, unassigned) [Example 5-282, (S or R) tert-butyl 4-(cyanomethyl)-4-(4-oxo-3-((4-(3-(trifluoromethyl)pyrrolidin-3-yl)phenyl)amino)-4,5-dihydro-1H-pyrazolo[4,3-c]pyridin-1-yl)piperidine-1-carboxylate] | 0.49 | 0.33 |
| CC(C)(C)OC(=O)N1CCC(CC#N)(n2nc(Nc3ccc(C4(C(F)(F)F)CCNC4)cc3)c3c(=O)[nH]ccc32)CC1 (single isomer, unassigned) [Example 5-283, (S or R) tert-butyl 4-(cyanomethyl)-4-(4-oxo-3-((4-(3-(trifluoromethyl)pyrrolidin-3-yl)phenyl)amino)-4,5-dihydro-1H-pyrazolo[4,3-c]pyridin-1-yl)piperidine-1-carboxylate] | 0.43 | 0.33 |
| CC(C)(C)OC(=O)[C@@H]1CC[C@@](CC#N)(n2nc(Nc3ccc(C4(C(F)(F)F)CCNC4)cc3)c3c(=O)[nH]ccc32)CO1 (single isomer, unassigned) [Example 5-284, (2S,5S)-tert-butyl 5-(cyanomethyl)-5-(4-oxo-3-((4-((R or S)-3-(trifluoromethyl)pyrrolidin-3-yl)phenyl)amino)-4,5-dihydro-1H-pyrazolo[4,3-c]pyridin-1-yl)tetrahydro-2H-pyran-2-carboxylate] | 0.24 | 0.15 |
| CC(C)(C)OC(=O)[C@@H]1CC[C@@](CC#N)(n2nc(Nc3ccc(C4(C(F)(F)F)CCNC4)cc3)c3c(=O)[nH]ccc32)CO1 (single isomer, unassigned) [Example 5-285, (2S,5S)-tert-butyl 5-(cyanomethyl)-5-(4-oxo-3-((4-((R or S)-3-(trifluoromethyl)pyrrolidin-3-yl)phenyl)amino)-4,5-dihydro-1H-pyrazolo[4,3-c]pyridin-1-yl)tetrahydro-2H-pyran-2-carboxylate] | 0.21 | 0.15 |
| CC(C)(C)OC(=O)[C@@H]1CC[C@@](CC#N)(n2nc(Nc3ccc(C4(C(F)(F)F)CCCCN4)cc3)c3c(=O)[nH]ccc32)CO1 (single isomer, unassigned) [Example 5-286, (2S,5S)-tert-butyl 5-(cyanomethyl)-5-(4-oxo-3-((4-((S or R)-2-(trifluoromethyl)piperidin-2-yl)phenyl)amino)-4,5-dihydro-1H-pyrazolo[4,3-c]pyridin-1-yl)tetrahydro-2H-pyran-2-carboxylate] | 0.33 | 0.24 |
| CC(C)(C)OC(=O)[C@@H]1CC[C@@](CC#N)(n2nc(Nc3ccc(C4(C(F)(F)F)CCCCN4)cc3)c3c(=O)[nH]ccc32)CO1 (single isomer, unassigned) [Example 5-287, (2S,5S)-tert-butyl 5-(cyanomethyl)-5-(4-oxo-3-((4-((S or R)-2-(trifluoromethyl)piperidin-2-yl)phenyl)amino)-4,5-dihydro-1H-pyrazolo[4,3-c]pyridin-1-yl)tetrahydro-2H-pyran-2-carboxylate] | 0.35 | 0.25 |
| N#CCC1(n2nc(Nc3ccc([C@@H](O)C(F)(F)F)cc3)c3c(=O)[nH]ccc32)CCN(c2cc(C(F)(F)F)ccn2)CC1 (single isomer, unassigned) [Example 16-2, (R or S)-2-(4-(4-oxo-3-(4-(2,2,2-trifluoro-1-hydroxyethyl)phenylamino)-4,5-dihydropyrazolo[4,3-c]pyridin-1-yl)-1-(4-(trifluoromethyl)pyridin-2-yl)piperidin-4-yl)acetonitrile] | 4.81 | 1.14 |
| N#CCC1(n2nc(Nc3ccc([C@H](O)C(F)(F)F)cc3)c3c(=O)[nH]ccc32)CCN(c2cc(C(F)(F)F)ccn2)CC1 (single isomer, unassigned) [Example 16-3, (R or S)-2-(4-(4-Oxo-3-(4-(2,2,2-trifluoro-1-hydroxyethyl)phenylamino)-4,5-dihydropyrazolo[4,3-c]pyridin-1-yl)-1-(4-(trifluoromethyl)pyridin-2-yl)piperidin-4-yl)acetonitrile] | 3.82 | 1.15 |
| N#CCC1(n2nc(Nc3ccc(C(F)(F)F)cc3)c3c(=O)[nH]ccc32)CCC(N2CC(F)C2)CC1 (single isomer, unassigned) [Example 18-1, 2-(4-(3-fluoroazetidin-1-yl)-1-(4-oxo-3-((4-(trifluoromethyl)phenyl)amino)-4,5-dihydro-1H-pyrazolo[4,3-c]pyridin-1-yl)cyclohexyl)acetonitrile] | 0.94 | 0.26 |
| N#CCC1(n2nc(Nc3ccc(C(F)(F)F)cc3)c3c(=O)[nH]ccc32)CCC(N2CC(F)C2)CC1 (single isomer, unassigned) [Example 18-2, 2-(4-(3-fluoroazetidin-1-yl)-1-(4-oxo-3-((4-(trifluoromethyl)phenyl)amino)-4,5-dihydro-1H-pyrazolo[4,3-c]pyridin-1-yl)cyclohexyl)acetonitrile] | 64 | 6.8 |
| Cc1cc(Nc2nn([C@]3(CC#N)CC[C@@H](C(=O)OC(C)(C)C)OC3)c3cc[nH]c(=O)c23)ccc1C(=O)N1CCOCC1C (single isomer, unassigned) [Example 20-8, (2S,5S)-tert-butyl 5-(cyanomethyl)-5-(3-((3-methyl-4-((S or R)-3-methylmorpholine-4-carbonyl)phenyl)amino)-4-oxo-4,5-dihydro-1H-pyrazolo[4,3-c]pyridin-1-yl)tetrahydro-2H-pyran-2-carboxylate] | 0.16 | 0.15 |
| Cc1cc(Nc2nn([C@]3(CC#N)CC[C@@H](C(=O)OC(C)(C)C)OC3)c3cc[nH]c(=O)c23)ccc1C(=O)N1CCOCC1C (single isomer, unassigned) [Example 20-9, (2S,5S)-tert-butyl 5-(cyanomethyl)-5-(3-((3-methyl-4-((S or R)-3-methylmorpholine-4-carbonyl)phenyl)amino)-4-oxo-4,5-dihydro-1H-pyrazolo[4,3-c]pyridin-1-yl)tetrahydro-2H-pyran-2-carboxylate] | 0.17 | 0.14 |
| Cc1cc(Nc2nn([C@]3(CC#N)CC[C@@H](C(=O)OC(C)(C)C)OC3)c3cc[nH]c(=O)c23)ccc1C(=O)N1CCOC(C)C1 (single isomer, unassigned) [Example 20-10, (2S,5S)-tert-butyl 5-(cyanomethyl)-5-(3-((3-methyl-4-((S or R)-2-methylmorpholine-4-carbonyl)phenyl)amino)-4-oxo-4,5-dihydro-1H-pyrazolo[4,3-c]pyridin-1-yl)tetrahydro-2H-pyran-2-carboxylate] | 0.31 | 0.21 |
| Cc1cc(Nc2nn([C@]3(CC#N)CC[C@@H](C(=O)OC(C)(C)C)OC3)c3cc[nH]c(=O)c23)ccc1C(=O)N1CCOC(C)C1 (single isomer, unassigned) [Example 20-11, (2S,5S)-tert-butyl 5-(cyanomethyl)-5-(3-((3-methyl-4-((S or R)-2-methylmorpholine-4-carbonyl)phenyl)amino)-4-oxo-4,5-dihydro-1H-pyrazolo[4,3-c]pyridin-1-yl)tetrahydro-2H-pyran-2-carboxylate] | 0.35 | 0.23 |
| Cc1cc(Nc2nn([C@]3(CC#N)CC[C@@H](C(=O)OC(C)(C)C)OC3)c3cc[nH]c(=O)c23)ccc1C(=O)N1CC(C)OC(C)C1 (single isomer, unassigned) [Example 20-12, (2S,5S)-tert-butyl 5-(cyanomethyl)-5-(3-((4-((2S,6S or 2R,6R)-2,6-dimethylmorpholine-4-carbonyl)-3-methylphenyl)amino)-4-oxo-4,5-dihydro-1H-pyrazolo[4,3-c]pyridin-1-yl)tetrahydro-2H-pyran-2-carboxylate] | 0.45 | 0.25 |

— US9957264B2 (Merck Sharp & Dohme Corp., priority 2013, dated 2018)
